Experimental findings from paper PMC9728921, “Characterization of a KDM5 small molecule inhibitor with antiviral activity against hepatitis B virus” (PLOS ONE, 2022) are described below.

Series [1] relates to HBV. The series can be described thus: Extracellular HBV DNA (vDNA) by qPCR in HBV-infected PHH. Type of series: cell-based. The settings on record: Hepatitis B virus. The method, then:
(§1) Approximately 24 hours after plating, PHH were infected with HepAD38-derived GTD virus at 500 viral genome equivalents per cell in maintenance medium supplemented with 4% PEG 8000 (Promega, Madison, WI; V3011). For patient sera infections, PHH were infected with 6 μl of patient sera in maintenance medium supplemented with 4% PEG 8000. Infections were allowed to proceed for 20–24 hours before removing remaining extracellular virions by washing with maintenance medium three times. […]
Viral DNA from PHH supernatants was purified using the Qiagen DNeasy 96 kit (Germantown, MD; 69582) following the manufacturer’s recommended protocol. Briefly, 50 μl of supernatant was collected, lysed with an equal volume of Qiagen ATL buffer containing 10% proteinase K, and then incubated at 56°C for 10 minutes. Lysates were then mixed with 100 μl of […] containing ethanol, transferred into the DNeasy 96 well plate, and placed onto a vacuum manifold (Qiagen; 19504). The vacuum was applied to bind DNA to the DNeasy membrane while contaminants passed through. DNA bound to the membrane was washed first with 500 μl of AW1followed by 500 μl of AW2 buffer. After washing, plates were centrifuged (Sigma Model 4-16S) at 6000 rpm for 2 minutes. DNA was then eluted with 100 μl of pre-warmed AE buffer by a final centrifugation step of 6000 rpm for 2 minutes.
Quantification of vDNA by qPCR (quantitative polymerase chain reaction) amplification of the HBVX region of the genome was performed by combining 5 μl of DNA, 900 nM of forward primer (5’[…] 3’), 900 nM of reverse primer (5’[…]-3’), 0.2 μM TaqMan probe (5’ [6FAM] […] [NFQ-MGB] 3’), and 1X TaqMan Fast Advanced Master Mix (Thermo Fisher Scientific; 4444557) for a total reaction volume of 20 μl in 96-well PCR plates (Thermo Fisher Scientific; 4346906). qPCR was carried out on a real-time PCR system (Thermo Fisher Scientific; QuantiStudio 7 Flex) using the following conditions: 95°C for 20 seconds, followed by 40 cycles of 95°C for 1 second and 60°C for 20 second. A plasmid containing the HBV full genome was used for the standard curve.
(§2) Antiviral activity of test compounds was determined from vRNA, vDNA, HBeAg, and HBsAg data by comparing compound-treated PHH to DMSO (vehicle)-treated PHH to generate a percent of DMSO control value (% DMSO control). The % DMSO control was calculated by the following equation: %DMSOControl=100xXc/XD where Xc is the signal from the compound-treated PHH and XD is the signal from the DMSO-treated PHH. The % DMSO control for vRNA, vDNA, HBeAg, HBsAg, GAPDH, or RPLP0 was plotted versus the log of each compound concentration in GraphPad Prism (version 6; Graphpad Software, LaJolla, CA) to generate dose-response curves. […] Dose-response curves were fitted using the nonlinear regression equation “log(agonist) versus response–variable slope (four parameters)” in GraphPad Prism to determine EC50 values.

Series [2] relates to HBV. The series can be described thus: Secreted HBsAg by immunoassay in HBV-infected PHH. Type of series: cell-based. Particulars: Hepatitis B virus. The method, then:
as §1
Hepatitis B e antigen (HBeAg) and Hepatitis B surface antigen (HBsAg) were detected in culture media at the indicated time by ELISA or electrochemiluminescence assay (MSD). The HBeAg and HBsAg ELISAs were performed using the HBeAg ELISA kit (International Immuno-Diagnostics, Foster City, CA) and HBsAg ETI-MAK-2 plus kit (DiaSorin, Stillwater, MN), respectively according to the manufacturer’s instructions. Concentrations were calculated by interpolation from standard curves with purified HBeAg and HBsAg. The MSD assay was performed according to the manufacturer’s instructions (Meso Scale Diagnostics, Rockville, MD). Briefly, cultured supernatants were inactivated with 0.5% Triton X-100 (30 minutes at 37°C) and then transferred into plates pre-spotted with both an anti-HBeAg antibody (Genway Bio, San Diego, CA) and a custom anti-HBsAg antibody. The plates were then incubated for two hours at room temperature with gentle shaking, followed by a wash step in PBS with 0.5% Tween. MSD sulfate tags anti-A and anti-B (1 μg/mL each) were then added to the wells and the plates incubated for a further two hours at room temperature with gentle shaking, followed by another wash step in PBS with 0.5% Tween. A 2X solution of MSD T Buffer Read was then added and the plate was read on a Sector Imager 6000 plate scanner.
as §2

In another series the test system is PHH. The series can be described thus: Cytotoxicity in HBV-infected PHH (50% decrease in GAPDH or RPLP0). It is filed as cell-based, human. The settings on record: treated every three to four days for 14 days.
Assay in series [3]: as above
The settings on record: human, HBV-infected primary human hepatocytes (PHH); for CC50 at 14 days: PHH donor Hu8181, treated every three to four days for 14 days. It is filed as cell-based, human.

A further series can be described thus: Cytotoxicity CC50, PHH. The settings on record: human, primary human hepatocytes (PHH). Type of series: cell-based. From the text:
(§3) a Values represent the geometric mean and multiplicative standard deviation of 3 – 5 primary human hepatocyte (PHH) donors or 5 – 10 independent experiments.
(§4) b MT-4: human T-lymphoblastoid cell line; PBMC: peripheral blood mononuclear cell; Gal-HepG2: galactose adapted human hepatoblastoma cell line; Huh-7: human hepatoma cell line; Gal-PC3: galactose adapted human prostate carcinoma cell line; MRC-5: Medical Research Council 5 embryonal lung fibroblast; NRVM: neonatal rat ventricular cardiomyocytes

A short description of a further series: Cytotoxicity CC50, PBMC. Particulars: human, PBMC (peripheral blood mononuclear cells). Type of series: cell-based.
From the text: as §3, §4

Another series is described as follows: Cytotoxicity CC50, NRVM. It is filed as cell-based. Particulars: rat, NRVM (neonatal rat ventricular cardiomyocytes).
From the text: as §3, §4

Another series can be described thus: Cytotoxicity CC50, Huh-7. It is filed as cell-based. The settings on record: human, Huh-7 cells (hepatoma cell line).
From the text: as §3, §4

Series [4] relates to PHH or a panel of human cells. The series can be described thus: Cytotoxicity in PHH or in a panel of human cells (summary). It is filed as cell-based. The settings on record: concentrations up to 57 μM.
The mark [5] stands for this setting: read-out: vDNA EC50, PHH donor BCD, HBV GTD, treated every three to four days for 14 days.
Setting [6] is: read-out: vDNA EC50, PHH donor Hu276, HBV GTD, treated every three to four days for 14 days.
[7] abbreviates: read-out: vDNA EC50, PHH donor Hu349, HBV GTD, treated every three to four days for 14 days.
Setting [8] is: read-out: vDNA EC50, PHH donor Hu4167, HBV GTD, treated every three to four days for 14 days.
The mark [9] stands for this setting: read-out: vDNA EC50, PHH donor Hu7272, HBV GTD, treated every three to four days for 14 days.
The mark [10] stands for this setting: read-out: vDNA EC50, PHH donor Hu8130, HBV GTD, treated every three to four days for 14 days.
The mark [11] stands for this setting: read-out: vDNA EC50, PHH donor Hu8181, HBV GTD, treated every three to four days for 14 days.
Where [12] appears, read: read-out: HBsAg EC50, PHH donor BCD, HBV GTD, treated every three to four days for 14 days.
Setting [13] is: read-out: HBsAg EC50, PHH donor Hu276, HBV GTD, treated every three to four days for 14 days.
The mark [14] stands for this setting: read-out: HBsAg EC50, PHH donor Hu349, HBV GTD, treated every three to four days for 14 days.
[15] abbreviates: read-out: HBsAg EC50, PHH donor Hu4167, HBV GTD, treated every three to four days for 14 days.
Setting [16] is: read-out: HBsAg EC50, PHH donor Hu7272, HBV GTD, treated every three to four days for 14 days.
Where [17] appears, read: read-out: HBsAg EC50, PHH donor Hu8130, HBV GTD, treated every three to four days for 14 days.
[18] abbreviates: read-out: HBsAg EC50, PHH donor Hu8181, HBV GTD, treated every three to four days for 14 days.

pEC50: −log10 of the molar value.

On to `CCOC(=O)c1cc(CNCC(=O)N(CC)CCN(C)C)ncc1Br` [GS-420], for which the pEC50 in the series with HBV [1] (setting [5]), with HBV [1] (setting [6]), with HBV [1] (setting [7]), in the series with HBV [1] (setting [8]), with HBV [1] (setting [9]) and in the series with HBV [1] (setting [10]) was less than 5.00 throughout. The negative logarithm of the EC50 (pEC50) in the series on HBV [1] (setting [11]), in the series on HBV [2] (setting [12]), in the series with HBV [2] (setting [13]), with HBV [2] (setting [14]), with HBV [2] (setting [15]) and in the series on HBV [2] (setting [16]) was less than 5.00 each time. Also, the pEC50 with HBV [2] (setting [17]) and in the series with HBV [2] (setting [18]) was less than 5.00 in each case. Moreover, the CC50 with PHH (PHH donor Hu276), in the series with PHH (PHH donor Hu349), in the series with PHH (PHH donor Hu4167), in the series with PHH (PHH donor Hu7272), in the series on PHH (PHH donor Hu8130) and in the series with PHH (PHH donor) was greater than 10 µM in each case. Moreover, in series [3], the CC50 at 14 days is greater than 10 µM.
`CCOC(=O)c1ccnc(CNCC(=O)N(CC)CCN(C)C)c1` [GS-5801]: the CC50 in “Cytotoxicity CC50, PHH” was greater than 50 µM; in “Cytotoxicity CC50, PBMC”, greater than 44 µM; in “Cytotoxicity CC50, NRVM” it was greater than 44 µM; in the series “Cytotoxicity CC50, Huh-7”, greater than 44 µM; in the series on PHH (PHH donor Hu276), greater than 10 µM; in the series on PHH (PHH donor Hu349), greater than 10 µM. In addition, the cytotoxic concentration (CC50) (in the series with PHH (PHH donor Hu4167); in the series with PHH (PHH donor Hu7272); in the series on PHH (PHH donor Hu8130); in the series with PHH (PHH donor); in series [3] (the seven PHH donors tested)) was greater than 10 µM each time. Besides, the pEC50 with HBV [1] (336 h, read-out: EC50 range across genotypes, extracellular HBV DNA, range across genotypes, 14 days of dosing) is 6.60 to 7.10; in the series with HBV [1] (336 h, read-out: EC50 range for extracellular DNA, range over the seven PHH donors tested, HBV GTD, Day 14), 5.89 to 8.15; with HBV [1] (336 h, read-out: median EC50, extracellular HBV DNA, median across HBV genotypes, 14 days of dosing) it was 6.70; in the series on HBV [1] (setting [5]), 8.15; with HBV [1] (setting [6]) it was 7.15; in the series on HBV [1] (setting [7]) it was 6.64. Further, the pEC50 was 6.96 in the series on HBV [1] (setting [8]); 5.96 with HBV [1] (setting [9]); 5.89 with HBV [1] (setting [10]); 6.85 with HBV [1] (setting [11]); 6.77 in the series with HBV [1] (read-out: vDNA EC50, PHH infected with HBV GTA, treated every three to four days for 13 days); 7.10 in the series with HBV [1] (read-out: vDNA EC50, PHH infected with HBV GTC, treated every three to four days for 13 days). Further, the pEC50 with HBV [1] (read-out: vDNA EC50, PHH infected with HBV GTD, treated every three to four days for 13 days (Table 3)) is 6.66; in the series with HBV [1] (read-out: vDNA EC50, PHH infected with HBV GTE, treated every three to four days for 13 days), 6.60; in the series with HBV [2] (336 h, read-out: EC50, secreted HBsAg, across HBV genotypes (summary value), 14 days of dosing), 6.77; with HBV [2] (336 h, read-out: EC50 range across genotypes, secreted HBsAg, range across genotypes, 14 days of dosing) it was 5.51 to 7.44; with HBV [2] (336 h, read-out: EC50 range for secreted HBsAg, range over the seven PHH donors tested, HBV GTD, Day 14), 5.77 to 7.82; in the series on HBV [2] (setting [12]) it was 7.82. Besides, the pEC50 in the series on HBV [2] (setting [13]) was 6.82; in the series with HBV [2] (setting [14]), 6.01; with HBV [2] (setting [15]), 6.62; in the series with HBV [2] (setting [16]), 5.29; in the series with HBV [2] (setting [17]), 5.77; with HBV [2] (setting [18]), 7.21. Besides, the pEC50 with HBV [2] (read-out: HBsAg EC50, PHH infected with HBV GTA, treated every three to four days for 13 days) was 7.44; in the series with HBV [2] (read-out: HBsAg EC50, PHH infected with HBV GTC, treated every three to four days for 13 days) it was 6.92; with HBV [2] (read-out: HBsAg EC50, PHH infected with HBV GTD, treated every three to four days for 13 days (Table 3)) it was 6.66; with HBV [2] (read-out: HBsAg EC50, PHH infected with HBV GTE, treated every three to four days for 13 days) it was 5.51. This compound also had a CC50 at 14 days in [3] greater than 10 µM. For the same compound, the measurable cytotoxicity entry in [4] is “neither GS-5801 nor GS-080 had measurable cytotoxicity”.
In the case of `CCN(CCN(C)C)C(=O)CNCc1cc(C(=O)O)ccn1` [GS-080], the CC50 in the series “Cytotoxicity CC50, PHH” was greater than 50 µM; in “Cytotoxicity CC50, PBMC”, greater than 44 µM; in “Cytotoxicity CC50, NRVM”, greater than 44 µM; in the series “Cytotoxicity CC50, Huh-7”, greater than 44 µM. In addition, the measurable cytotoxicity result in [4] is “neither GS-5801 nor GS-080 had measurable cytotoxicity”.

Usually pEC50 stands for the EC50 on a negative log10 scale, so that one unit is a factor of ten. In general, CC50 refers to the concentration giving 50% cytotoxicity. A lower CC50 goes with greater toxicity to the cells.
